What was measured:
[1] = cited from earlier work
[2] = Bioavailability by route of administration in dog (Example 3); conditions: in vivo
[3] = Pharmacokinetic comparison of 4- and 8-mg sublingual tablets with 1 mg i.v. in healthy male volunteers (Example 4)
[4] = Plasma concentration or dose threshold for adverse effects
[5] = cited from earlier work; remark: listed apart in the source
clinical = conditions: human, plasma
[6] = Nerve stimulated clitoral and vaginal wall blood flow in females; type: in vivo; conditions: administration to females
[7] = Plasma concentration profile in dog at day 1, 90 and 180 (Example 2); type: in vivo; conditions: day 1, day 90 or day 180, 0.04, 0.1, 0.4 mg/kg
Procedure: To assess whether the reduction in side effects could be attributable to changes in pharmacokinetic response, a plasma concentration profile study was conducted for each dosage group at day 1, day 90 and day 180.

[8] = Apomorphine in human patients: erection and side effects (prior studies / general findings); type: in vivo; conditions: apomorphine dosage forms
Description: The specific mechanisms by which apomorphine acts to produce an erectile response in a human patient are not yet completely understood, however.

[9] = Adverse events in escalating dose tolerance study in psychogenic male erectile dysfunction (Example 5); type: in vivo, human; conditions: in vivo
Procedure: Example 5-Summary. This clinical study was conducted in three phases. In Phase 1 subjects were selected from among patients complaining of impotence by a thorough physiological and psychological assessment. For example, one step in the assessment process required candidates to undergo Rigiscan measurement of penile rigidity and circumference following administration of a placebo tablet in single blind fashion. Phase 2 consisted of a dose escalation (4, 6, and 8 mg tablets) administered on 4 visits. An out-patient phase was conducted as Phase 3. Patients were given apomorphine HCL tablets to use at home.
Example-5 Detailed Description (Clinical Study #94-03-01). The human study was conducted in three separate phases. Phase 1 consisted of selecting appropriate subjects and obtaining baseline information on sexual performance for each subject.
They were tested on four separate days at four separate doses (placebo and three active medication doses) with an interval of no less than six days between visits (i.e., one visit per week).
If the trial was aborted, the patient was given the choice of having Gravol 50 mg p.o. (an anti-emetic) administered at that time or enduring the adverse events as they arose. In either event, the patient was monitored by the research clinician until all side-effects had subsided. The patient was asked to return the following week for the next scheduled dose.
During the five-week, home-use phase, subjects were to attempt coitus at least once each week after taking a single APO tablet. After each attempt, the subject and their partner completed a Sexual Function questionnaire (See FIGS. 15 and 16) which was later evaluated and used for final statistical analysis.
The data was analyzed by an inspection of the reported adverse events, the given dose of apomorphine and the phase of the study, i.e., in-patient (dose escalating) or take-home (constant dose) phases.

[10] = cited from earlier work; remark: listed apart in the source

Q: Which “side effects / therapeutic usefulness (Segraves)” value ([1]; erectile responses in human males) does the source give for `CN1CCc2cccc3c2[C@H]1Cc1ccc(O)c(O)c1-3` [apomorphine, (R)-5,6,6a,7-Tetrahydro-6-methyl-4H-dibenzo-[de,g] quinoline-10,11-diol] here?
A: too many side effects to have therapeutic usefulness

Q: And the “erection in psychogenic male patients” value ([1]; psychogenic impotence)?
A: can indeed induce an erection in a psychogenic patient

Q: What about the “side effects at dose required for significant erectile response” value ([1]; psychogenic impotence) of the same molecule?
A: usually accompanied by nausea or other serious undesirable side effects, including hypertension, flushing and diaphoresis (sweating)

Q: And the AUC ([2]; 0.2 mg/kg)?
A: 5.45 ng·h/mL

Q: What about the AUC ([2]; po, 0.2 mg/kg) of the same molecule?
A: 1.58 ng·h/mL

Q: What about the AUC ([2]; sc, 0.04 mg/kg) of the same molecule?
A: 8.06 ng·h/mL

Q: And the “MRT (mean residual time)” value ([3]; i.v. 1 mg)?
A: 40.3 min

Q: What about the “Vd (volume of distribution @ β stage)” value ([3]; s.l. tablet 8 mg) of the same molecule?
A: 2.07 L/kg

Q: What about the “plasma concentration at which incidence of adverse side effects is minimal” value ([4]; plasma concentration maintained at no more than) of the same molecule?
A: no more than 5.5 ng/ml

Q: What about the “threshold concentration (Cmax) for onset of adverse effects” value ([4]; plasma, human male subjects, nausea) of the same molecule?
A: about 2.5 nanograms/milliliter

Q: And the “threshold dose for most impotence patients” value ([4]; sublingual tablet, week 1)?
A: 2 mg

Q: What about the “nausea and vomiting after large doses” value ([5]; large doses, mammals such as humans, dogs) of the same molecule?
A: usually results in nausea and vomiting

Q: And the emetic dose ([5]; subcutaneous, recognized use as an emetic)?
A: ~5 milligram

Q: And the AUC (clinical; 4 mg)?
A: 0.527 ng·h/mL

Q: And the Cmax (clinical; 4 mg)?
A: 0.83 ng/mL

Q: And the AUC (clinical; 8 mg)?
A: 4.72 ng·h/mL

Q: What about the AUC (clinical; iv, 1 mg) of the same molecule?
A: 3.45 ng·h/mL

Q: What about the Cmax (clinical; iv, 1 mg) of the same molecule?
A: 8.3 ng/mL

Q: And the “nerve stimulated clitoral intracavernosal and vaginal wall blood flow” value [6]?
A: increases nerve stimulated clitoral intracavernosal blood flow and vaginal wall blood flow

Q: And the “AUC, distribution, or elimination over repeated dosing” value [7]?
A: No evidence of significant changes

Q: What about the “effectiveness in Parkinson's disease and psychogenic erectile dysfunction” value [8] of the same molecule?
A: effective

Q: What about the “blood or urinalysis values” [9] of the same molecule?
A: no clinically significant changes

Q: And the “lethality of larger infusion dose” value ([10]; 1,500 μg/kg/hr, 14 day study)?
A: minimally lethal

Q: What about the “tolerated continuous infusion dose” value ([10]; continuous infusion, 14 days) of the same molecule?
A: 420 µg/kg/h

Reference: US5994363A (priority 1998, dated 1999)
